Consider 1 compound from US12016865B2, “Methods and pharmaceutical compositions for treating candida auris in blood” (Cormedix Inc., priority 2017, dated 2024).

A value given as a limit tells only on which side of the number the result lay.

The conditions of data set [1]: water buffered at pH 7.2; cited from earlier work.
For data set [2] the following is noted: cited from earlier work.
The conditions of data set [3]: cited from earlier work. The source holds these as a separate data set.
The conditions of data set [4]: saturated solution in deionized water; cited from earlier work.
The conditions of data set [5]: stored at ambient conditions; cited from earlier work.
Data set [6] deals with C. auris blood-borne pathogens. Put plainly: treating C. auris blood-borne pathogens (FIG. 2). The arrangement: species or system Candida auris. Conditions: blood-borne infection of C. auris. From the text:
FIG. 2 is a table showing the effectiveness of treating a blood-borne infection of C. auris using taurolidine and/or taurolidine derivatives.

The test system of another data set is Microbes. The note with it: microbes killed and toxins inactivated; cited from earlier work.

As for `O=S1(=O)CCN(CN2CCS(=O)(=O)NC2)CN1` [taurolidine, 4,4′-methylene-bis(tetrahydro-1,2,4-thiadiazine)-1,1,1′,1′,-tetraoxide], the “apparent partition coefficient between octanol and water” value in data set [1] is recorded as “approximately 0.13”. Further, the “solubility in CHCl3” value in data set [2] (CHCl3) is “insoluble”. Moreover, in data set [2] (Dilute HCl), the “solubility in Dilute HCl” value was “soluble”. The “solubility in Dilute NaOH” value in data set [2] (Dilute NaOH) is reported as “soluble”. Besides, in data set [2] (EtOH), the “solubility in EtOH” value is “sparingly soluble”. Moreover, the “solubility in Water” value in data set [2] (Water, at 20 degrees C.) is recorded as 1%. For the same compound, in data set [3] (cumulative doses), the “cumulative dose shown safe and well tolerated” value is reported as more than 300 g. Moreover, the “systemic dose shown safe and well tolerated” value in data set [3] (systemic doses) is “exceeding 40 g/day”. Besides, the “pH of saturated solution” value in data set [4] is given as 7.4. For the same compound, the “stability in the solid state” value in data set [5] is on record as “acceptable stability”. Also, the “effect on C. auris blood-borne pathogens” value in data set [6] was “neutralize C. auris blood-borne pathogens”. Besides, the “destruction time in vitro” value in the data set on Microbes is listed as “approximately 30 minutes”.
